# Patent US6878690B2, “Compounds and methods” (PharmAxis Pty Ltd., priority 2000, dated 2005)
# Key:
# [1] = tested on: myelin basic protein (MBP)-specific T lymphocyte cell lines; assay: Inhibition of T-lymphocyte migration across rat brain endothelial cell layer (Transwell, 51Cr-labelled cells); assay type: cell-based, Lewis rats; details: test substance 10 mmolar in upper well; 6 hours; in comparison with the negative control (glucose 6-phosphate); triplicate
# Text: Vascular endothelial cells were isolated from rat brain capillaries taken from 6 to 8 week old Lewis rats according to the method of Risau et al. (Risau, W., Engelhardt, B., and Wekerle, H., (1990). Journal of Cell Biology, vol 110, p 1757-1766, which is incorporated herein by reference). Colonies of endothelial cells were purified from astroglial cells and pericytes by a Thy1.1-mediated complement lysis also after the method of Risau et al. (vide supra). The endothelial colonies, according to methods known in the art, were grown in Dulbecco's minimum essential medium (DMEM) high glucose supplemented, with 20% fetal calf serum (FCS), glutamine, pyruvate, nonessential amino acids, 4-(2-hydroxyethyl)-1-piperazine ethane sulfonic acid buffer (HEPES), kanamycin, amphotericin, heparin (all from Gibco) and 150 micrograms/ml endothelial growth supplement (Collaborative Biomedical Products). Upon reaching confluence, the endothelial cultures were washed with 0.2% EDTA in phosphate buffered saline (PBS), trypsinized (Trypsin-EDTA, 0.1% final concentration, Gibco), washed and again incubated with anti-Thy1.1 antibody for 40 minutes, washed and incubated with complement sufficient to lyse all Thy1.1+ cells (Behringwerke, AG, Marburg, Germany) at room temperature, washed and plated on matrigel-coated 6.5 mm Transwells, […] (Corning Costar Corporation, Cambridge, Mass.). The endothelial cell characteristics and confluence of the monolayer were checked by measuring the electrical resistance (World Precision Instruments, New Haven, U.S.A., model EVOM-G) and by staining with FITC-labeled phalloidin (Sigma). In order to study the effect of the agents of the present invention on T lymphocyte migration, myelin basic protein (MBP)-specific T lymphocyte cell lines were generated according to the method of Ben-Nun et al. (Ben-Nun, A., Wekerle, H. and Cohen, I. R., 1981). The rapid isolation of clonable antigen-specific T lymphocyte lines capable of mediating autoimmune encephalomyelitis. European Journal of Immunology. 1981, 11(3), 195-199; incorporated herein by reference) from the lymph nodes of Lewis rats that had been immunised with MBP in Freund's complete adjuvant. These cells were used for migration studies during the first 4 days of their propagation in IL-2 containing medium, following antigen (MBP) restimulation in the presence of antigen-presenting cells from irradiated spleen cells or thymocytes taken from normal Lewis rats. The antigen-activated T lymphocytes were radio-labelled with sodium chromate (^51Cr, 37 MBq/ml, Amersham, UK) for 30 minutes at 37° C. with occasional agitation, they were then washed three times with the DMEM culture medium and placed into the upper chamber of the Transwells at 5×10^5 cells in 100 microliters of migration medium. Test and control substance were included in the upper wells at final concentrations of 0.1, 1 and 10 mM. Cell migration was monitored by light microscopy in order to gauge progress of the experiment. […] The combined material was transferred into scintillation vials and the radioactivity of each tube determined by counting for 1 minute in a Packard Auto-Gamma 5650 (IL, USA) gamma counter. Each test and the control substance (glucose 6-phosphate) and no treatment were assessed in triplicate. […]
# [2] = tested on: passively transferred adjuvant arthritis; assay: Passively transferred adjuvant induced arthritis; assay type: in vivo, DA rats; details: 25 mg/kg/day, end of the one week treatment period, FIG. 1
# Protocol: Male DA rats 8 to 10 week old were immunised with three 100 microliter injections of Complete Freund's Adjuvant (CFA) intradermally at the base of the tail. The CFA was prepared by mixing 8 mg/ml of Mycobacterium butyricum (Difco Laboratories, USA) that had been ground to a fine powder using a mortar and pestle, in 85% light mineral oil (Sigma, USA) and 15% mannide monooleate (Sigma) and emulsifying this suspension, one part in one part saline. Thus, the final emulsion contained 4 mg/ml of M. butyricum.
# Ten days after immunisation the rats were euthanased and the spleens removed aseptically. A single cell suspension was prepared in the usual manner in mixed lymphocyte culture medium (MLC) (Dulbecco's Modified Eagle's Medium (DMEM) plus glucose, folic acid, L-asparagine, sodium pyruvate, HEPES, 2-mercapto ethanol, penicillin, streptomycin, neomycin and 10% fetal calf serum) by pushing the spleens through a stainless steel sieve. The cells were placed in culture in MLC medium with 2 micrograms/ml concanavalin A added such that the lymphocyte concentration was 2 million cells per milliliter. These cells were cultured aseptically at 37° C. in an atmosphere containing 5% carbon dioxide for 72 hours.
# Groups of 4 or 5 DA rats, 6 to 8 weeks of age were anesthetised with diethyl ether and implanted subcutaneously on the flank with Alzet 2002 (2 week delivery) or 2001 (1 week delivery) mini-osmotic pumps (Alza Corp., Palo Alto Calif., USA). One treatment group received phosphoric acid mono-(6-propyl-3,4,5-trihydroxy-tetrahydro-pyran-2-ylmethyl) ester in the one week delivery Alzet 2001 mini-osmotic pumps. The drug was delivered at a dose of 25 mg/kg/day. The control group for this experiment received identical mini-osmotic pumps containing normal saline. In a second experiment another group of DA rats received ethyl (3,4,5-trihydroxy-6-phosphonooxymethyl-tetrahydro-pyran-2-yl)-acetic acid ester in the two week delivery Alzet 2002 mini-osmotic pumps. This drug was delivered at a dose of 37 mg/kg/day. Control animals for this group received saline delivered in identical mini-osmotic pumps. The pumps in each case were implanted subcutaneously on the flank of each animal. […]
# After 5 to 8 days, a characteristic thickening and cutaneous hyperemia of the distal joints of the hind legs became clinically apparent in the saline control animals. Disease severity was evaluated and graded in each group by taking daily measurements of the mediolateral widths of both ankle joints. The data were expressed as the mean of the change (compared with width prior to cell injection) in mediolateral ankle width expressed in millimeters (±standard error of the mean).
smiles,measurement,setting,value
"CCCC1OC(COP(=O)(O)O)C(O)C(O)C1O (stereo not drawn) [phosphoric acid mono-(6-propyl-3,4,5-trihydroxy-tetrahydro-pyran-2-ylmethyl) ester]",% inhibition ± SEM,[1],64 ± 4%
same,swelling in the affected joints of treated animals,"[2]; one week Alzet 2001 pump subcutaneously, controls severe swelling",little swelling
same,disease status of the treated versus the control animals,[2]; one week Alzet 2001 pump,highly statistically significant difference
